Reference: patent publication US9211310B2, “Use of a Chinese medicine composition in preparing medicaments for treating secondary prevention of myocardial infarction” (TASLY PHARMACEUTICAL GROUP CO., LTD, priority 2010, dated 2015)

System: patients after acute myocardial infarction
Experiment: TCM symptom score, total and single (chest pain, chest tightness, short breath, fatigue, palpitation, spontaneous perspiration, pale complexion), same clinical trial
Type: in vivo, human
Text: 3508 patients who were in accordance with the diagnostic standards of AMI for 28 days to 2 years and differentiated as Qi deficiency and blood stagnation syndrome by TCM were studied. 0.5 g Chinese medicine composition prepared by the method of EXAMPLE 1 (Coded as QSYQ) was administrated half an hour after meal, 3 times per day.
They included the overall survival time, angina pectoris score, TCM symptom score and life quality score, where angina pectoris score, TCM symptom score and life quality score were evaluated at randomization, in 1st, 3rd, 6th, 9th, 12th month after treatment and 18th month after follow-up.
The analysis method referred to the angina pectoris score.

[1] = 9 months after treatment-baseline, FAS
[2] = 9 months after treatment-baseline, PP
[3] = 12 months after treatment-baseline, FAS

CC(=O)Oc1ccccc1C(=O)O [Control group, aspirine]
chest pain score 0, percent of patients (6 months after treatment, PP): (42.93%) | chest pain score 3, number of patients (6 months after treatment, PP): 539 | chest pain score 3, percent of patients (6 months after treatment, PP): (37.75%) | chest pain score 6, number of patients (6 months after treatment, PP): 272 | chest pain score 6, percent of patients (6 months after treatment, PP): (19.05%) | chest pain score 9, number of patients (6 months after treatment, PP): 4 | chest pain score 9, percent of patients (6 months after treatment, PP): (0.28%) | chest tightness score 0, number of patients (6 months after treatment, PP): 613 | chest tightness score 0, percent of patients (6 months after treatment, PP): (42.93%) | chest tightness score 3, number of patients (6 months after treatment, PP): 539 | chest tightness score 3, percent of patients (6 months after treatment, PP): (37.75%) | chest tightness score 6, number of patients (6 months after treatment, PP): 272 | chest tightness score 6, percent of patients (6 months after treatment, PP): (19.05%) | chest tightness score 9, number of patients (6 months after treatment, PP): 4 | chest tightness score 9, percent of patients (6 months after treatment, PP): (0.28%) | change of chest pain score 0, number of patients [1]: 1022 | change of chest pain score 0, percent of patients [1]: (59.80%) | change of chest pain score 3, number of patients [1]: 463 | change of chest pain score 3, percent of patients [1]: (27.09%) | change of chest pain score 6, number of patients [1]: 124 | change of chest pain score 6, percent of patients [1]: (7.26%) | change of chest pain score 9, number of patients [1]: 6 | change of chest pain score 9, percent of patients [1]: (0.35%) | change of chest pain score −3, number of patients [1]: 81 | change of chest pain score −3, percent of patients [1]: (4.74%) | change of chest pain score −6, number of patients [1]: 13 | change of chest pain score −6, percent of patients [1]: (0.76%) | change of chest pain score −9, number of patients [1]: 0 | change of chest pain score −9, percent of patients [1]: (0.00%) | change of chest tightness score 0, number of patients [1]: 1007 | change of chest tightness score 0, percent of patients [1]: (58.92%) | change of chest tightness score 3, number of patients [1]: 534 | change of chest tightness score 3, percent of patients [1]: (31.25%) | change of chest tightness score 6, number of patients [1]: 68 | change of chest tightness score 6, percent of patients [1]: (3.98%) | change of chest tightness score 9, number of patients [1]: 4 | change of chest tightness score 9, percent of patients [1]: (0.23%) | change of chest tightness score −3, number of patients [1]: 93 | change of chest tightness score −3, percent of patients [1]: (5.44%) | change of chest tightness score −6, number of patients [1]: 3 | change of chest tightness score −6, percent of patients [1]: (0.18%) | change of chest tightness score −9, number of patients [1]: 0 | change of chest tightness score −9, percent of patients [1]: (0.00%) | change of chest pain score 0, number of patients [2]: 826 | change of chest pain score 0, percent of patients [2]: (58.58%) | change of chest pain score 3, number of patients [2]: 409 | change of chest pain score 3, percent of patients [2]: (29.01%) | change of chest pain score 6, number of patients [2]: 106 | change of chest pain score 6, percent of patients [2]: (7.52%) | change of chest pain score 9, number of patients [2]: 4 | change of chest pain score 9, percent of patients [2]: (0.28%) | change of chest pain score −3, number of patients [2]: 58 | change of chest pain score −3, percent of patients [2]: (4.11%) | change of chest pain score −6, number of patients [2]: 7 | change of chest pain score −6, percent of patients [2]: (0.50%) | change of chest pain score −9, number of patients [2]: 0 | change of chest pain score −9, percent of patients [2]: (0.00%) | change of chest tightness score 0, number of patients [2]: 801 | change of chest tightness score 0, percent of patients [2]: (56.81%) | change of chest tightness score 3, number of patients [2]: 476 | change of chest tightness score 3, percent of patients [2]: (33.76%) | change of chest tightness score 6, number of patients [2]: 62 | change of chest tightness score 6, percent of patients [2]: (4.40%) | change of chest tightness score 9, number of patients [2]: 3 | change of chest tightness score 9, percent of patients [2]: (0.21%) | change of chest tightness score −3, number of patients [2]: 65 | change of chest tightness score −3, percent of patients [2]: (4.61%) | change of chest tightness score −6, number of patients [2]: 3 | change of chest tightness score −6, percent of patients [2]: (0.21%) | change of chest tightness score −9, number of patients [2]: 0 | change of chest tightness score −9, percent of patients [2]: (0.00%) | chest pain score 0, number of patients (9 months after treatment, FAS): 791 | chest pain score 0, percent of patients (9 months after treatment, FAS): (46.04%) | chest pain score 3, number of patients (9 months after treatment, FAS): 618 | chest pain score 3, percent of patients (9 months after treatment, FAS): (35.97%) | chest pain score 6, number of patients (9 months after treatment, FAS): 305 | chest pain score 6, percent of patients (9 months after treatment, FAS): (17.75%) | chest pain score 9, number of patients (9 months after treatment, FAS): 4 | chest pain score 9, percent of patients (9 months after treatment, FAS): (0.23%) | chest tightness score 0, number of patients (9 months after treatment, FAS): 791 | chest tightness score 0, percent of patients (9 months after treatment, FAS): (46.04%) | chest tightness score 3, number of patients (9 months after treatment, FAS): 618 | chest tightness score 3, percent of patients (9 months after treatment, FAS): (35.97%) | chest tightness score 6, number of patients (9 months after treatment, FAS): 305 | chest tightness score 6, percent of patients (9 months after treatment, FAS): (17.75%) | chest tightness score 9, number of patients (9 months after treatment, FAS): 4 | chest tightness score 9, percent of patients (9 months after treatment, FAS): (0.23%) | chest pain score 0, number of patients (9 months after treatment, PP): 661 | chest pain score 0, percent of patients (9 months after treatment, PP): (46.71%) | chest pain score 3, number of patients (9 months after treatment, PP): 519 | chest pain score 3, percent of patients (9 months after treatment, PP): (36.68%) | chest pain score 6, number of patients (9 months after treatment, PP): 233 | chest pain score 6, percent of patients (9 months after treatment, PP): (16.47%) | chest pain score 9, number of patients (9 months after treatment, PP): 2 | chest pain score 9, percent of patients (9 months after treatment, PP): (0.14%) | chest tightness score 0, number of patients (9 months after treatment, PP): 661 | chest tightness score 0, percent of patients (9 months after treatment, PP): (46.71%) | chest tightness score 3, number of patients (9 months after treatment, PP): 519 | chest tightness score 3, percent of patients (9 months after treatment, PP): (36.68%) | chest tightness score 6, number of patients (9 months after treatment, PP): 233 | chest tightness score 6, percent of patients (9 months after treatment, PP): (16.47%) | chest tightness score 9, number of patients (9 months after treatment, PP): 2 | chest tightness score 9, percent of patients (9 months after treatment, PP): (0.14%) | change of chest pain score 0, number of patients [3]: 962 | change of chest pain score 0, percent of patients [3]: (56.29%) | change of chest pain score 3, number of patients [3]: 511 | change of chest pain score 3, percent of patients [3]: (29.90%) | change of chest pain score 6, number of patients [3]: 150 | change of chest pain score 6, percent of patients [3]: (8.78%) | change of chest pain score 9, number of patients [3]: 7 | change of chest pain score 9, percent of patients [3]: (0.41%) | change of chest pain score −3, number of patients [3]: 70 | change of chest pain score −3, percent of patients [3]: (4.10%) | change of chest pain score −6, number of patients [3]: 9 | change of chest pain score −6, percent of patients [3]: (0.53%) | change of chest pain score −9, number of patients [3]: 0 | change of chest pain score −9, percent of patients [3]: (0.00%) | change of chest tightness score 0, number of patients [3]: 933 | change of chest tightness score 0, percent of patients [3]: (54.59%) | change of chest tightness score 3, number of patients [3]: 598 | change of chest tightness score 3, percent of patients [3]: (34.99%) | change of chest tightness score 6, number of patients [3]: 87 | change of chest tightness score 6, percent of patients [3]: (5.09%)
